Laboratory results as given in patent US5280125A, “Chemical process for the preparation of 3-alkylated indole” (Imperial Chemical Industries PLC, priority 1990, dated 1994).

Assays:
leukotriene LTD4 = experiment: guinea-pig aerosol test (LTD4 aerosol challenge, onset of dyspnea); assay type: in vivo
Method: According to this procedure, guinea-pigs are pre-dosed with test compound as a solution in poly(ethylene glycol) (generally 1 hour) before an aerosol challenge of leukotriene LTD4 (starting with 2 ml of a 30 microgram/ml solution) and the effect of the test compound on the average time of leukotriene initiated change in breathing pattern (such as onset of dyspnea) recorded and compared with that in undosed, control guinea-pigs. Percent protection engendered by a test compound was calculated from the time delay to the onset of dyspnea compared to that for control animals.

LTC4, LTD4 and/or LTE4 = experiment: in vitro leukotriene antagonist tests (guinea-pig tracheal strip preparation or receptor-ligand binding assay); conditions: in one of the above in vitro tests

Row | Compound | ED50 (leukotriene LTD4; Cavia porcellus, 1 h, oral administration, protection against LTD4 aerosol-induced dyspnea) [µmol/kg] | untoward side-effects (leukotriene LTD4; oral, at several multiples of the minimum effective dose) | concentration showing statistically significant activity as LTC4, LTD4 and/or LTE4 antagonist (LTC4, LTD4 and/or LTE4)
1 | COc1cc(C(=O)NS(=O)(=O)c2ccccc2C)ccc1Cc1cn(C)c2ccc(C(=O)NC[C@H](C)CC(F)(F)F)cc12 [compound of formula I substantially in the form of the (R)-enantiomer, (R)-4-[5-(N-[4,4,4-trifluoro-2-methylbutyl]carbamoyl)-1-methylindol-3-yl-methyl]-3-methoxy-N-o-tolylsulphonylbenzamide] | 1.1 | without any indication of untoward side-effects | 
2 | COc1cc(C(=O)NS(=O)(=O)c2ccccc2C)ccc1Cc1cn(C)c2ccc(C(=O)NCC(C)CC(F)(F)F)cc12 (stereo not drawn) [compound of formula I, 4-[5-(N-[4,4,4-trifluoro-2-methylbutyl]carbamoyl)-1-methylindol-3-ylmethyl]-3-methoxy-N-o-tolylsulphonylbenzamide] |  |  | ≤ 10^-8 M
